From patent US4783528A, “Steroidal lariat ethers” (University of Miami (Department of Chemistry), priority 1987, dated 1988) come the findings set out here.

Experiment [1] can be described thus: Cation binding constant (log KS) for K+ in anhydrous methanol at 25° C. To be noted: decadic (log10) logarithm of equilibrium constant lariat ether + cation = complex. How it is done:
(§1) As a result, only the macroring itself is expected to provide cation binding sites.
(§2) ^a Binding constants determined in anhydrous methanol solution at
(§3) 25° C. as described in the articles by Dishong et al., and Schultz
(§4) Notes. a. Binding constants determined in anhydrous methanol solution at 25° C. as described in the articles by Dishong et al., and Schultz et al. referred to above.
(§5) The binding constant, usually referred to as KS, is the equilibrium constant for the reaction: lariat ether + cation .revreaction. complex. The values in the table are expressed as decadic (log10) logarithms.

Experiment [2] in a line: Cation binding constant (log KS) for Na+ in anhydrous methanol at 25° C. Conditions: decadic (log10) logarithm of equilibrium constant lariat ether + cation = complex. Here is the method: as §1, §2, §3, §4, §5

For the compound `CC(C)CCC[C@@H](C)[C@H]1CC[C@H]2[C@@H]3CC=C4C[C@@H](OC(=O)N5CCOCCOCCOCCOCCOCC5)CC[C@]4(C)[C@H]3CC[C@]12C` [Compound 9, N-(Cholesteryloxycarbonyl)aza-18-crown-6], the “Cation Binding Constants (log KS), K^+” value in experiment [1] came out at 1.78. Moreover, the “Cation Binding Constants (log KS), Na^+” value in experiment [2] is 2.07.

Take `CC(C)CCC[C@@H](C)[C@H]1CC[C@H]2[C@@H]3CC=C4C[C@@H](OC(=O)N5CCOCCOCCOCCOCC5)CC[C@]4(C)[C@H]3CC[C@]12C` [Compound 8, N-(Cholesteryloxycarbonyl)aza-15-crown-5]: the “Cation Binding Constants (log KS), K^+” value in experiment [1] is less than 1.5. Moreover, the “Cation Binding Constants (log KS), Na^+” value in experiment [2] is on record as less than 1.5.

Turning to “Cholestanyl (4-aza-18-crown-6)acetate [Compound 7]”, the “Cation Binding Constants (log KS), K^+” value in experiment [1] was 5.78. Further, in experiment [2], the “Cation Binding Constants (log KS), Na^+” value came to 4.58.

Take `CC(C)CCC[C@@H](C)[C@H]1CC[C@H]2[C@@H]3CC=C4C[C@@H](OC(=O)CN5CCOCCOCCOCCOCCOCC5)CC[C@]4(C)[C@H]3CC[C@]12C` [Compound 5, Cholesteryl (4-aza-18-crown-6) acetate]: the “Cation Binding Constants (log KS), K^+” value in experiment [1] is 5.75. For the same compound, the “Cation Binding Constants (log KS), Na^+” value in experiment [2] turned out to be 4.56.

With `CC(C)CCC[C@@H](C)[C@H]1CC[C@H]2[C@@H]3CC[C@H]4C[C@@H](OC(=O)CN5CCOCCOCCOCCOCC5)CC[C@]4(C)[C@H]3CC[C@]12C` [Compound 6, Cholestanyl (4-aza-15-crown-5) acetate], the “Cation Binding Constants (log KS), K^+” value in experiment [1] is recorded as 4.03. For the same compound, the “Cation Binding Constants (log KS), Na^+” value in experiment [2] is on record as 4.12.

`CC(C)CCC[C@@H](C)[C@H]1CC[C@H]2[C@@H]3CC=C4C[C@@H](OC(=O)CN5CCOCCOCCOCCOCC5)CC[C@]4(C)[C@H]3CC[C@]12C` [Compound 4, Cholesteryl (4-aza-15-crown-5)acetate]: in experiment [1], the “Cation Binding Constants (log KS), K^+” value came to 4.03. The “Cation Binding Constants (log KS), Na^+” value in experiment [2] is on record as 4.10.
